# Patent publication US4257941A, “Polycyclic nitrogen-containing compounds” (BASF Aktiengesellschaft, priority 1976, dated 1981)
# Where two headings read alike, the source gives them in different places.
# Legend:
# Digitaria sanguinalis = assay: Herbicidal action (Example 25); format: in vivo; settings: preemergence
# Method in brief: (§1)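 Plants of each species grew in sandy loam in the greenhouse at 12–25 or 18–35 °C. Compounds in water were sprayed either preemergence right after sowing or postemergence at 2–8 cm plant height. Damage was scored visually after 2–6 weeks on a 0–100 scale, where 100 means not germinated or fully destroyed.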
# Cynodon dactylon = assay: Herbicidal action (Example 25); format: in vivo; settings: preemergence
# Method in brief: as §1
# Ipomoea spp. = assay: Herbicidal action (Example 25); format: in vivo; settings: preemergence, 4.0 kg/ha
# Method in brief: as §1
# Euphorbia spp. = assay: Herbicidal action (Example 25); format: in vivo; settings: preemergence
# Method in brief: as §1
# Alopecurus myosuroides = assay: Herbicidal action (Example 25); format: in vivo; settings: Alopecurus myosuroides, pre-emergence, read-out: percentage damage
# Method in brief: as §1
# Cyperus esculentus = assay: Herbicidal action (Example 25); format: in vivo; settings: preemergence
# Method in brief: as §1
# Lolium multifl. = assay: Growth height of Gramineae (Example 11, Table B); format: in vivo; settings: 3.0 kg/ha, 0 = no inhibition, 100 = no growth; for inhibition at 3000 g/ha: Lolium, read-out: growth inhibition compared with untreated control
# From the text: (§2) The vessels used for the experiments were plastic pots having a volume of 1,130 cm^3 (Table A) or paraffined paper cups having a volume of 170 cm^3 (Table B). The pots and cups were filled with a sandy loam. The seeds of the test plants-separated by species-were sown shallow. Preemergence treatment (soil treatment) was effected immediately after sowing and before germination of the seeds. Seeds lying on the surface came into contact with the active ingredients. Postemergence treatment (leaf treatment) took place at an average growth height of the plants (depending on the rate of growth) of from 6 to 10 cm. The substances were suspended, emulsified or dissolved in water as diluent and applied by means of fine nozzles. The vessels were kept in the greenhouse in a temperature range of 12° C. to 25° C., and were regularly sprinkler irrigated for the duration of the experiment. The observation period was 6 to 8 weeks.
# Hordeum vulgare = assay: Growth height of Gramineae (Example 11, Table B); format: in vivo; settings: 3.0 kg/ha, 0 = no inhibition, 100 = no growth; for inhibition at 3000 g/ha: Hordeum vulgare, read-out: growth inhibition compared with untreated control
# From the text: as §2
# Avena sativa = assay: Growth height of Gramineae (Example 11, Table B); format: in vivo; settings: 3.0 kg/ha, 0 = no inhibition, 100 = no growth; for inhibition at 3000 g/ha: Avena sativa, read-out: growth inhibition compared with untreated control
# From the text: as §2
# Setaria faberii = assay: Herbicidal action (Example 25); format: in vivo; settings: preemergence
# Method in brief: as §1
# Sinapis alba = assay: Herbicidal action (Example 25); format: in vivo; settings: pre-emergence, preemergence, read-out: percentage damage; for pest or weed control at 2000 g/ha: 2.0 kg/ha
# Method in brief: as §1
# Sorghum halepense = assay: Herbicidal action (Example 25); format: in vivo; settings: preemergence
# Method in brief: as §1
# Poa annua = assay: Herbicidal action (Example 25); format: in vivo; settings: Poa annua, pre-emergence, preemergence, 2.0 kg/ha; read-out: percentage damage
# Method in brief: as §1
# Stellaria media = assay: Herbicidal action (Example 25); format: in vivo; settings: preemergence, 2.0 kg/ha
# Method in brief: as §1
# sugar beet = assay: Sugar content of sugar beet in the open (Example 21); format: in vivo, Beta vulgaris sap. altissima (Kleinwanzleben KAWPoly); settings: 2.0 kg/ha; for Sugar content in freshly lifted beet, absolute: control 12.6 a; for Sugar content in freshly lifted beet, relative increase: control 100
# From the text: The crop plant was Beta vulgaris sap. altissima, variety "Kleinwanzleben KAWPoly". The soil was a sandy loam (1.5% organic substance, pH 5.7). Mineral fertilization totalled 400 kg N, 100 kg P2 O5, and 100 kg K2 O per hectare. For chemical weed control, 2.5 kg/ha of 1-phenyl-4-amino-5-chloropyridazone-(6) was applied before emergence of the beet plants. Aphids were controlled with dimethoate (O,O-dimethyl-S-(N-methylcarbonylmethyl)-phosphorus dithioate). Sowing took place on Mar. 10, 1975. The beets were lifted comparatively early on Sept. 29, 1975. The active ingredient was applied with the aid of spraying equipment with fine nozzles, mounted on a tractor. The amount of water used for dispersion purposes was 780 liters/ha. Treatment was effected on 2 different dates and on different plots:
# I--the beet had 5 to 7 true leaves;
# II--five weeks before harvesting, on the well developed plants. The sugar content was determined from fresh beets immediately after lifting.
structure (smiles),measurement,setting,value
c1ccc(N2C3C4CC(C5N=NC45)C32)cc1 (stereo not drawn) [drawing 411],percentage damage,Digitaria sanguinalis; 2.0 kg/ha,70 percentage damage
same,percentage damage,Digitaria sanguinalis; 4.0 kg/ha,100 percentage damage
same,percentage damage,Cynodon dactylon; 2.0 kg/ha,65 percentage damage
same,percentage damage,Cynodon dactylon; 4.0 kg/ha,90 percentage damage
same,percentage damage,Ipomoea spp.,29 percentage damage
same,percentage damage,Euphorbia spp.; 2.0 kg/ha,90 percentage damage
same,percentage damage,Euphorbia spp.; 4.0 kg/ha,100 percentage damage
same,pest or weed control at 2000 g/ha,Alopecurus myosuroides,70%
same,pest or weed control at 4000 g/ha,Alopecurus myosuroides,83%
same,percentage damage,Cyperus esculentus; 2.0 kg/ha,45 percentage damage
same,percentage damage,Cyperus esculentus; 4.0 kg/ha,60 percentage damage
Brc1ccc(N2N=NC3C4CC(C5NNC45)C32)cc1 (stereo not drawn),inhibition at 3000 g/ha,Lolium multifl.; leaf treatment,50%
same,inhibition at 3000 g/ha,Lolium multifl.; soil treatment,50%
same,inhibition at 3000 g/ha,Hordeum vulgare; leaf treatment,50%
same,inhibition at 3000 g/ha,Hordeum vulgare; soil treatment,60%
same,inhibition at 3000 g/ha,Avena sativa; leaf treatment,60%
same,inhibition at 3000 g/ha,Avena sativa; soil treatment,60%
Brc1ccc(N2C3C4CC(C5N=NC45)C32)cc1 (stereo not drawn),inhibition at 3000 g/ha,Lolium multifl.; leaf treatment,50%
same,inhibition at 3000 g/ha,Lolium multifl.; soil treatment,50%
same,inhibition at 3000 g/ha,Hordeum vulgare; leaf treatment,50%
same,inhibition at 3000 g/ha,Hordeum vulgare; soil treatment,60%
same,inhibition at 3000 g/ha,Avena sativa; leaf treatment,50%
same,inhibition at 3000 g/ha,Avena sativa; soil treatment,40%
O=S(=O)(c1ccccc1)N1C2C3CC(C4N=NC34)C21 (stereo not drawn) [drawing 419],percentage damage,Setaria faberii; 2.0 kg/ha,40 percentage damage
same,percentage damage,Setaria faberii; 4.0 kg/ha,100 percentage damage
same,pest or weed control at 2000 g/ha,Sinapis alba,90%
same,percentage damage,Sorghum halepense; 2.0 kg/ha,53 percentage damage
same,percentage damage,Sorghum halepense; 4.0 kg/ha,50 percentage damage
same,pest or weed control at 2000 g/ha,Poa annua,70%
c1ccc(CN2N=NC3C4CC(C5N=NC45)C32)cc1 (stereo not drawn) [drawing 417],percentage damage,Setaria faberii; 2.0 kg/ha,80 percentage damage
same,percentage damage,Setaria faberii; 4.0 kg/ha,90 percentage damage
same,pest or weed control at 2000 g/ha,Sinapis alba,80%
same,pest or weed control at 4000 g/ha,Sinapis alba; 4.0 kg/ha,95%
same,percentage damage,Sorghum halepense; 2.0 kg/ha,90 percentage damage
same,percentage damage,Sorghum halepense; 4.0 kg/ha,90 percentage damage
Cc1ccc(N2N=NC3C4CC(C5N=NC45)C32)cc1 (stereo not drawn) [drawing 418],percentage damage,Stellaria media,13 percentage damage
same,percentage damage,Setaria faberii; 2.0 kg/ha,55 percentage damage
same,percentage damage,Setaria faberii; 4.0 kg/ha,100 percentage damage
same,pest or weed control at 2000 g/ha,Sinapis alba,98%
same,percentage damage,Sorghum halepense; 2.0 kg/ha,55 percentage damage
same,percentage damage,Sorghum halepense; 4.0 kg/ha,55 percentage damage
same,pest or weed control at 2000 g/ha,Poa annua,65%
c1ccc(-n2nccc2N2N=NC3C4CC(C5N=NC45)C32)cc1 (stereo not drawn),growth inhibition compared with untreated control,Lolium multifl.; leaf treatment,0%
same,growth inhibition compared with untreated control,Hordeum vulgare; leaf treatment,20%
same,growth inhibition compared with untreated control,Hordeum vulgare; soil treatment,35%
same,growth inhibition compared with untreated control,Avena sativa; leaf treatment,20%
same,growth inhibition compared with untreated control,Avena sativa; soil treatment,60%
Brc1ccc(N2N=NC3C4CC(C5N=NC45)C32)cc1 (stereo not drawn) [drawing 401],"Sugar content in freshly lifted beet, absolute","sugar beet; date I (20.05.75), letter = Duncan group",14.35%
same,"Sugar content in freshly lifted beet, relative increase",sugar beet; date I,113
same,"Sugar content in freshly lifted beet, absolute","sugar beet; date II (21.08.75), letters = Duncan group",13.85%
same,"Sugar content in freshly lifted beet, relative increase",sugar beet; date II,110
